Experimental data published in patent US20200038414A1, “METHODS OF TREATING CONSTIPATION USING AMINOSTEROL COMPOSITIONS” (Enterin, Inc., priority 2018, published 2020).
Where “and” joins values, the source holds several entries; their conditions need not be identical. Equal values may be shown once.

What was measured:
[1] = system: PD patients with constipation; experiment: Phase 2 trial Stage 1: adverse events; format: in vivo, human; settings: Stage 1, dosed 10
Source text: (§1) Tolerability limits included diarrhea or vomiting.

αS = αS (Homo sapiens, UniProt P37840); settings: in vitro; cited from earlier work
[2] = system: PD patients with constipation; experiment: Phase 2 trial, both Stages: adverse events in all dosed patients (n = 44); format: in vivo, human
Protocol: Adverse events were coded using the current version of MedDRA. Severity of AEs were assessed by investigators according to CTCAE (v4.03): Grade 1 is labeled as Mild, Grade 2 as Moderate, and Grade 3 and above as Severe. […] The number (percentage) of subjects who experienced an AE during escalation and fixed dosing periods were summarized by dose level and overall for each stage. The denominator for calculating the percentages were based on the number of subjects ever exposed to each dose and overall.

[3] = system: PD patients with constipation; experiment: Phase 2 trial Stage 2: adverse events; format: in vivo, human
Protocol: (§2) In Stage 2, 34 patients were evaluated.

C. elegans model of PD = settings: cited from earlier work
[4] = system: PD patients with constipation; experiment: Phase 2 trial Stage 2: bowel function under daily oral dosing (escalation, fixed dose, randomization, wash-out); format: in vivo, human; settings: for CSBM/week: randomized cohort
Protocol: as §2
The primary efficacy outcome variable was whether or not a subject was a “success” or “failure”. This is an endpoint based on subject diary entries for the “fixed dose” period prior to the endpoint assessment defined as average complete stool frequency increase by 1 or more over baseline, or 3 or more complete spontaneous stools/week. The subject was deemed a “success” if s/he met one or more of the criteria listed above, otherwise the subject was deemed a “failure”. The primary analysis was based on all subjects with a baseline assessment and an assessment at the end of the “fixed-dose” period and was a comparison of the proportion of successes with 0.10 (the null hypothesis corresponding to no treatment effect).

[5] = system: PD patients with constipation; experiment: Phase 2 trial Stage 2: CNS symptoms (UPDRS, MMSE, PDHQ, BDI-II); format: in vivo, human; settings: for PDHQ (Mean): baseline 1.3 (2.99); for BDI-II (Mean): baseline 10.9 (7.12)
Protocol: (9) Unified Parkinson's Disease Rating Scale (UPDRS), which consists of 42 items in four subscales (Part I=Non-Motor Aspects of Experiences of Daily Living (nM-EDL) (1.1 cognitive impairment, 1.2 hallucinations and psychosis, 1.3 depressed mood; Part II=Motor Aspects of Experiences of Daily Living (M-EDL), Part III=Motor Examination, and Part IV=Motor Complications;
Assessments were made at baseline and at the end of the fixed dose and washout periods. Circadian system status was evaluated by continuously monitoring wrist skin temperature (Thermochron iButton DS1921H; Maxim, Dallas) following published procedures (Sarabia et al. 2008).
An exploratory analysis was done with respect to the sleep data, the body temperature data, mood, fatigue, hallucinations, cognition and other motor and non-motor symptoms of PD. Continuous measurements within a subject were compared with a paired t-test and continuous measurements between subject groups were compared with a two-group t-test. Categorical data were compared with a chi-squared test or a Fisher's exact test if the expected cell counts are too small for a chi-squared test.
CNS symptoms were evaluated at baseline and at the end of the fixed dose period and the wash-out period (Table 11). Total UPDRS score was 64.4 at baseline, 60.6 at the end of the fixed dose period and 55.7 at the end of the wash-out period (p=0.002); similarly, the motor component of the UPDRS improved from 35.3 at baseline to 33.3 at the end of fixed dose to 30.2 at the end of wash-out (p=0.006). MMSE improved from 28.4 at baseline to 28.7 during treatment and to 29.3 during wash-out (p=0.0006). […] PDHQ improved from 1.3 at baseline to […] during treatment and 0.9 during wash-out (p=0.03). Hallucinations were reported by 5 patients at baseline and delusions in 1 patient. […] Unlike stool-related indices, the improvement in many CNS symptoms persisted during wash-out.

[6] = system: PD patients with constipation; experiment: Phase 2 trial Stage 1: prokinetic response to single escalating oral doses; format: in vivo, human; settings: Stage 1, single oral dose
Source text: as §1

[7] = system: PD population with constipation; settings: short term placebo controlled trial in PD; loose stools/diarrhea in place of constipation; cited from earlier work
mouse models of PD = settings: several mouse models of PD; cited from earlier work
[8] = following systemic administration, in mice; into the duodenum through the biliary tract; cited from earlier work
[9] = Stage 2, dosed 34, unrelated to ENT-01

CC(C)[C@@H](CC[C@@H](C)[C@H]1CC[C@H]2[C@@H]3[C@H](O)C[C@H]4C[C@@H](NCCCNCCCCN)CC[C@]4(C)[C@H]3CC[C@]12C)OS(=O)(=O)O (single isomer, unassigned) [squalamine (ENT-01)]
adverse event: Abdominal pain, Mild [1]: 2 (20) n, %
adverse event: Abdominal pain, Moderate [1]: 3 (30) n, %
adverse event: Diarrhea, Mild [1]: 1 (10) n, %
adverse event: Diarrhea, Moderate [1]: 3 (30) n, %
adverse event: Diarrhea, Severe [1]: 0 n, %
adverse event: Difficulty falling asleep, Mild [1]: 0 n, %
adverse event: Difficulty falling asleep, Moderate [1]: 0 n, %
adverse event: Dizziness, Mild [1]: 0 n, %
adverse event: Dizziness, Moderate [1]: 0 n, %
adverse event: Eye infection, Mild [1]: 0 n, %
adverse event: Eye infection, Moderate [1]: 0 n, %
adverse event: Flatulence, Mild [1]: 2 (20) n, %
adverse event: Flatulence, Moderate [1]: 0 n, %
adverse event: Headache, Mild [1]: 1 (10) n, %
adverse event: Headache, Moderate [1]: 0 n, %
adverse event: Increased urinary frequency, Mild [1]: 0 n, %
adverse event: Increased urinary frequency, Moderate [1]: 0 n, %
adverse event: Nausea, Mild [1]: 4 (40) n, %
adverse event: Nausea, Moderate [1]: 0 n, %
adverse event: Skin lesions-rash, Mild [1]: 0 n, %
adverse event: Skin lesions-rash, Moderate [1]: 0 n, %
adverse event: Urinary retention, Mild [1]: 0 n, %
adverse event: Urinary retention, Moderate [1]: 0 n, %
adverse event: Urinary tract infection, Mild [1]: 0 n, %
adverse event: Urinary tract infection, Moderate [1]: 0 n, %
adverse event: Vomiting, Mild [1]: 1 (10) n, %
adverse event: Vomiting, Moderate [1]: 0 n, %
adverse event: Worsening acid reflux, Mild [1]: 0 n, %
adverse event: Worsening acid reflux, Moderate [1]: 0 n, %
adverse event: Worsening hemorrhoid, Mild [1]: 0 n, %
adverse event: Worsening hemorrhoid, Moderate [1]: 0 n, %
adverse event: Blood in urine, Mild ([1]; unrelated to ENT-01): 1 (10) n, %
adverse event: Blood in urine, Moderate ([1]; unrelated to ENT-01): 0 n, %
adverse event: Loss of appetite, Mild ([1]; unrelated to ENT-01): 1 (10) n, %
adverse event: Loss of appetite, Moderate ([1]; unrelated to ENT-01): 0 n, %
adverse event: Lower GI bleed, Severe ([1]; unrelated to ENT-01): 0 n, %
effect on formation of aggregates of αS (αS): inhibit the formation of aggregates of αS
patients with worsening of hemorrhoids ([2]; 1/44): 2.2%
patients with worsening of acid reflux ([2]; 2/44): 4.5%
patients with flatulence ([2]; 3/44): 6.8%
patients with vomiting ([2]; 3/44): 6.8%
patients with dizziness ([2]; 8/44): 18%
patients with abdominal pain ([2]; 11/44): 32%
patients with diarrhea ([3]; Stage 2, 15/34): 44%
patients who withdrew during dosing because of diarrhea ([3]; Stage 2, 34 dosed): 2
adverse event: Abdominal pain, Mild ([3]; Stage 2, dosed 34): 4 n
adverse event: Abdominal pain, Moderate ([3]; Stage 2, dosed 34): 2 n
adverse event: Diarrhea, Mild ([3]; Stage 2, dosed 34): 12 n
adverse event: Diarrhea, Moderate ([3]; Stage 2, dosed 34): 2 n
adverse event: Diarrhea, Severe ([3]; Stage 2, dosed 34): 1 n
adverse event: Difficulty falling asleep, Mild ([3]; Stage 2, dosed 34): 1 n
adverse event: Difficulty falling asleep, Moderate ([3]; Stage 2, dosed 34): 0 n
adverse event: Dizziness, Mild ([3]; Stage 2, dosed 34): 7 n
adverse event: Dizziness, Moderate ([3]; Stage 2, dosed 34): 1 n
adverse event: Eye infection, Mild ([3]; Stage 2, dosed 34): 1 n
adverse event: Eye infection, Moderate ([3]; Stage 2, dosed 34): 0 n
adverse event: Flatulence, Mild ([3]; Stage 2, dosed 34): 1 n
adverse event: Flatulence, Moderate ([3]; Stage 2, dosed 34): 0 n
adverse event: Headache, Mild ([3]; Stage 2, dosed 34): 3 n
adverse event: Headache, Moderate ([3]; Stage 2, dosed 34): 0 n
adverse event: Increased urinary frequency, Mild ([3]; Stage 2, dosed 34): 2 n
adverse event: Increased urinary frequency, Moderate ([3]; Stage 2, dosed 34): 0 n
adverse event: Nausea, Mild ([3]; Stage 2, dosed 34): 18 n
adverse event: Nausea, Moderate ([3]; Stage 2, dosed 34): 1 n
adverse event: Skin lesions-rash, Mild ([3]; Stage 2, dosed 34): 3 n
adverse event: Skin lesions-rash, Moderate ([3]; Stage 2, dosed 34): 0 n
adverse event: Urinary retention, Mild ([3]; Stage 2, dosed 34): 1 n
adverse event: Urinary retention, Moderate ([3]; Stage 2, dosed 34): 0 n
adverse event: Urinary tract infection, Mild ([3]; Stage 2, dosed 34): 1 n
adverse event: Urinary tract infection, Moderate ([3]; Stage 2, dosed 34): 2 n
adverse event: Vomiting, Mild ([3]; Stage 2, dosed 34): 2 n
adverse event: Vomiting, Moderate ([3]; Stage 2, dosed 34): 0 n
adverse event: Worsening acid reflux, Mild ([3]; Stage 2, dosed 34): 4 n
adverse event: Worsening acid reflux, Moderate ([3]; Stage 2, dosed 34): 0 n
adverse event: Worsening hemorrhoid, Mild ([3]; Stage 2, dosed 34): 1 n
adverse event: Worsening hemorrhoid, Moderate ([3]; Stage 2, dosed 34): 0 n
adverse event: Lower GI bleed, Severe ([3]; Stage 2, dosed 34, colonic diverticulosis, polyp, patient on aspirin, Plavix and naproxen, unrelated to ENT-01): 1 n
adverse event: Blood in urine, Mild [3, 9]: 0 n
adverse event: Blood in urine, Moderate [3, 9]: 0 n
adverse event: Loss of appetite, Mild [3, 9]: 0 n
adverse event: Loss of appetite, Moderate [3, 9]: 0 n
patients terminated prior to completion because of recurrent dizziness ([3]; Stage 2, two of 34 dosed): 5.8%
effect on formation of aggregates of αS (C. elegans model of PD; C. elegans model of PD in vivo): inhibit the formation of aggregates of αS
CSBM, weekly average (mean, SD) ([4]; Stage 2, fixed dose, n = 34, baseline 1.2 (0.90), P 2.3 × 10^−8): 3.8 /week and 3.8 (2.40) /week
Suppository use / rescue medication, weekly average (mean, SD) ([4]; Stage 2, fixed dose, n = 34, baseline 1.8 (1.92), P 1.33 × 10^−5): 0.3 /week and 0.3 (0.67) /week
SBM, weekly average (mean, SD) ([4]; Stage 2, fixed dose, n = 34, baseline 2.6 (1.45), P 6.4 × 10^−6): 4.5 /week and 4.5 (2.21) /week
Consistency (Mean, SD) ([4]; Stage 2, wash-out, Bristol stool scale, baseline 2.7 (1.20), P vs. baseline 0.85): 2.8 (1.39)
CSBM (Mean, SD) ([4]; Stage 2, wash-out, baseline 1.2 (0.90), P wash-out vs. baseline 0.01): 1.8 (1.19) /week
PAQ-SYM (Mean, SD) ([4]; Stage 2, wash-out, baseline 1.3 (0.45), P vs. baseline 0.11): 1.1 (0.60)
PAQ-QOL (Mean, SD) ([4]; Stage 2, wash-out, baseline 1.4 (0.49), P vs. baseline 0.04): 1.2 (0.63)
Rescue meds (Mean, SD) ([4]; Stage 2, wash-out, baseline 1.8 (1.92), P vs. baseline 0.13): 1.0 (1.40) /week
SBM (Mean, SD) ([4]; Stage 2, wash-out, baseline 2.6 (1.45), P vs. baseline 0.16): 3.2 (1.80) /week
Ease (Mean, SD) ([4]; Stage 2, wash-out, ease of evacuation scale, baseline 3.2 (0.73), P vs. baseline 0.78): 3.3 (0.81)
improvement of SBM/week ([4]; fixed dose vs baseline (2.6 to 4.5)): 73%
mean dose required for a prokinetic response ([4]; patients with baseline ≥1 CSBM/week, relation to baseline severity p=0.00055): 120 mg
CSBM/week ([4]; Treatment arm (n = 6), fixed dose period, baseline 0.8): 3.2 CSBM/week
CSBM/week ([4]; Treatment arm (n = 6), randomized period (4-6 days), baseline 0.8): 2.4 CSBM/week
CSBM/week ([4]; Treatment arm (n = 6), washout, baseline 0.8): 0.9 CSBM/week
CSBM/week ([4]; patients later given placebo (n = 9), fixed dose period on drug, baseline 1.6): 3.3 CSBM/week
PDHQ (Mean) ([5]; Stage 2, fixed dose, n = 34, P 0.45): 1.8
BDI-II (Mean) ([5]; Stage 2, fixed dose, n = 34, P 0.14): 9.9
PDHQ (Mean) ([5]; Stage 2, wash-out, n = 34, P 0.03): 0.9
BDI-II (Mean) ([5]; Stage 2, wash-out, n = 34, P 0.10): 8.7
UPDRS Part 1 (NMS) (Mean) ([5]; Stage 2, wash-out, n = 34, baseline 11.6 (6.51), P 0.06): 9.5
patients in whom hallucinations and delusions improved or disappeared ([5]; during treatment, hallucinations in 5 patients and delusions in 1 patient at baseline): 5 of 6
cumulative prokinetic response rate (patients with a CSBM within 24 hours of dosing) ([6]; 25 mg): 25%
cumulative prokinetic response rate (patients with a CSBM within 24 hours of dosing) ([6]; 200 mg (maximum)): 80%

CCCCC(F)(F)[C@@]1(O)CC[C@H]2[C@@H](CC(=O)[C@@H]2CCCCCCC(=O)O)O1 [Lubiprostone]
share of treated patients in whom effective [7]: about 50%

CC(C)[C@@H](CC[C@@H](C)[C@H]1CC[C@H]2[C@@H]3[C@H](O)C[C@H]4C[C@@H](NCCCNCCCCN)CC[C@]4(C)[C@H]3CC[C@]12C)OS(=O)(=O)O [squalamine]
effect on gastrointestinal dysmotility (mouse models of PD): reverse gastrointestinal dysmotility
clearance and excretion [8]: cleared by the liver and excreted as the intact molecule
effect on muscle paralysis (C. elegans model of PD; C. elegans model): complete reversal of muscle paralysis
